For data set [1], the system named is detached leaves of Triticum aestivum cv. Hereward. Kind of data set: Membrane lipid peroxidation (MDA, TBA method) in detached wheat leaves during dark senescence. It counts as in vivo. Particulars: four days in the dark, Control 18.9 (±2.2). As for the experimental part: A typical symptom associated with senescence as a direct consequence of increased reactive oxygen species is lipid peroxidation. Therefore the levels of MDA, a decomposition product of lipid peroxidation, were measured in detached wheat leaves that were exposed to the prepared novel derivatives and kinetin for four days in the dark as described in Example 8. MDA levels were measured using a thiobarbituric acid (TBA) method. In detail, 100 mg of fresh plant material was homogenized by high speed shaking in a ball mill (MM301, Retsch, Germany) with 1 mL of 80% methanol. The crude extract was centrifuged at 10,000×g for 5 min, and 100 μL aliquot of supernatant was vortexed with 100 μL of 0.5% (w/v) TBA containing 0.1% (w/v) trichloroacetic acid, and the resulting solution was then incubated for 30 min at 95° C. The samples were quickly cooled on ice and recentrifuged for 5 min at 1000×g. The absorbance of supernatant was measured at 532 nm with background subtraction at 600 nm and the amount of MDA-TBA complex was calculated from the coefficient of absorbance 155 mM^−1cm^−1.
(§1) Seeds of winter wheat, Triticum aestivum cv. Hereward, were washed under running water for 24 hours and then sown on vermiculite soaked with Knop's solution. They were placed in the grown chamber at 25° C. with a 16/8 hours light period at […]. After 7 days, the first leaf was fully developed and the second leaf had started to grow. A tip section of the first leaf, approximately 35 mm long, was removed from 5 seedlings and trimmed slightly to a combined weight of 100 mg. The basal ends of the five leaf tips were placed in the wells of a microtiter polystyrene plate containing […] of a cytokinin solution each. The entire plate was inserted into a plastic box lined with paper tissues soaked in distilled water to prevent leaf sections from drying out. After 96 hours incubation in the dark at 25° C., the leaves were removed and chlorophyll extracted by heating at 80 C for 10 min in 5 ml of 80% ethanol (v/v). The sample volume was then restored to 5 ml by the addition of 80% ethanol (v/v). The absorbance of the extract was recorded at 665 nm. In addition, chlorophyll extracts from fresh leaves and leaf tips incubated in deionized water were measured. From the obtained data, the concentration with highest activity was selected for each compound tested. Relative activity of the compound at this concentration was calculated (see Table 6 below). The activity obtained for 10^−4 M kinetin (Kin) was set as 100%. The values shown are means of five replicates and the whole experiment was repeated twice.

Data set [2] concerns excised wheat leaf tips (Triticum aestivum cv. Hereward). Kind of data set: Senescence inhibition on winter wheat leaf segments (retention of chlorophyll). It counts as in vivo. Particulars: 10^−4 mol/L; 96 hours in the dark; activity of kinetin set at 100%. As for the experimental part: as §1
The compounds to be tested were dissolved in dimethylsulfoxide (DMSO) and the solution brought up to 10^−3 M with distilled water. […] As summarized in Table 6 below, the presence of C-8 substitutent was beneficial and led to increase of antisenescent properties.

The subject of data set [3] is human diploid fibroblasts (HDF cells; HDF25, HDF45, HDF80). In words: Inhibition of human cell aging: senescent cells by beta-galactosidase staining. Particulars: for SENESCENT CELLS (%) HDF25: human diploid fibroblasts passage 25, beta-galactosidase staining; for SENESCENT CELLS (%) HDF45: human diploid fibroblasts passage 45, beta-galactosidase staining; for SENESCENT CELLS (%) HDF80: human diploid fibroblasts passage 80, beta-galactosidase staining. It is filed as cell-based. As for the experimental part:
In this example, human diploid fibroblasts (HDF cells of various passage levels: passage 25—designated HDF25; passage 45—designated HDF45; passage 80—designated HDF80) were stained for beta-galactosidase activity. The medium used for the cell cultivation was removed the cells were washed twice in […], and fixed in 2-3 ml of fixing solution comprised of a 2% formaldehyde and 0.2% glutaraldehyde in PBS. The cells were incubated at room temperature for 5 minutes, and then washed twice with PBS. The cells were subsequently incubated at 37° C. […] In this experiment, senescent cells, but no other cells were stained blue due to the action of beta-galactosidase on the substrate.

The subject of data set [4] is Salmonella typhimurium histidien auxotrophs TA98 and TA100. In words: Ames test. It is filed as cell-based. Particulars: 2.5 to 5000 μg/plate; presence and absence of Aroclor-induced rat liver S9. As for the experimental part: A number of tests related to the safety of have been carried out using conventionally accepted protocols and procedures. The results of these studies are summarized herein. Tests were carried out using DMSO as solvent and dose levels of compound 21, 24, 26, 27, 39, 41, 45, 48, 50, 52, 53, 54, 55, 56, 63, 64, 66, 67, 68, 69, 70, 71, 72, 74, 76, 124, 125, 126, 127, 128, 129, 130, 145, 146, 147, 149, 150, 151, 208, 216, 218 a 243 at 2.5, 5.0, 15, 50, 500, 1500, and 5000 μg/plate based upon standard protocol and procedures (Ames et al., Mutation Research, 31, 347-364 (1975); Maron et al., Mutation Research, 113, 173-215 (1983)).

Data set [5] deals with cytokinin-dependent tobacco callus Nicotiana tabacum L. cv. Wisconsin 38. Kind of data set: Plant cell division: growth of cytokinin-dependent tobacco callus. It is filed as cell-based. Particulars: for Activity (%); (s.d.): relative activity at concentration with highest activity, 10^−6 M kinetin set at 100%; for Concentration with highest activity (mol/l): tobacco callus fresh weight increase after four weeks, tested 10^−8 M to 10^−4 M. As for the experimental part: Cytokinin-dependent tobacco callus Nicotiana tabacum L. cv. Wisconsin 38 was maintained at 25° C. in darkness on modified MS medium, containing 4 μmol/l nicotinic acid, 2.4 μmol/l pyridoxine hydrochloride, 1.2 μmol/l thiamine, 26.6 μmol/l glycine, 1.37 μmol/l glutamine, 1.8 μmol/l myo-inositol, 30 g/l of sucrose, 8 g/l of agar, 5.37 μmol/l NAA and 0.5 μmol/l BAP. Subcultivation was carried out every three weeks. Fourteen days before the bioassay, the callus tissue was transferred to the media without BAP. Biological activity was determined from the increase in fresh callus weight after four weeks of cultivation. Five replicates were prepared for each cytokinin concentration and the entire test was repeated twice. From the obtained data, the concentration with highest activity was selected for each compound tested. Relative activity at this concentration was calculated (see Table 17 below). The activity obtained for 10^−6 M kinetin (Kin) was set as 100%.
The cytokinins to be tested were dissolved in dimethylsulfoxide (DMSO) and the solution brought up to 10^−3M with distilled water.

Turning to `Clc1nc2c(NCc3ccco3)ncnc2n1C1CCCCO1` (centres unmarked) [Compound 1, 8-Chloro-6-furfurylamino-9-(tetrahydropyran-2-yl)-9H-purine], the “MDA (nmol/g FW)” value in data set [1] is recorded as 12.8 (±1.0) nmol/g FW. Also, the “Activity (%) (s.d.), retention of chlorophyll” value (“Activity (%) (s.d.), retention” below) in data set [2] was 105 (±3) %.
The like results for `Oc1ccc(CNc2ncnc3c2nc(Cl)n3C2CCCCO2)cc1O` (centres unmarked) [Compound 10] were, in that order, 12.8 (±1.1) nmol/g FW and 132 (±7) %.
Regarding `Oc1ccc(CNc2ncnc3c2nc(Cl)n3C2CCCCO2)cc1` (centres unmarked) [Compound 13], the “MDA (nmol/g FW)” value in data set [1] was 11.9 (±1.3) nmol/g FW.
The same measure, in the same setting: under `COc1cc(CNc2ncnc3c2nc(Cl)n3C2CCCCO2)cc(OC)c1O` (centres unmarked) [Compound 14] stands 12.2 (±1.4) nmol/g FW; under `Oc1ccc(Nc2ncnc3c2nc(Cl)n3C2CCCCO2)cc1` (centres unmarked) [Compound 16], 11.6 (±1.0) nmol/g FW.
As to `Brc1nc2c(NCc3ccco3)ncnc2n1C1CCCCO1` (centres unmarked) [Compound 21, 8-Bromo-6-furfurylamino-9-(tetrahydropyran-2-yl)-9H-purine], the “MDA (nmol/g FW)” value in data set [1] was 12.1 (±1.2) nmol/g FW. Further, in data set [2], the “Activity (%) (s.d.), retention” value is given as 108 (±3) %. In addition, in data set [3], the “SENESCENT CELLS (%) HDF25” value was 3%, the “SENESCENT CELLS (%) HDF45” value is recorded as 5% and the “SENESCENT CELLS (%) HDF80” value came out at 20%. Further, the mutagenic response result in data set [4] is “no positive mutagenic responses”.
For the compound `C/C(=C/CNc1ncnc2c1nc(Br)n2C1CCCCO1)CO` (centres unmarked) [Compound 25], the “MDA (nmol/g FW)” value in data set [1] is on record as 11.7 (±1.1) nmol/g FW.
Take `Oc1ccc(CNc2ncnc3c2nc(Br)n3C2CCCCO2)cc1O` (centres unmarked) [Compound 39]: the “MDA (nmol/g FW)” value in data set [1] is recorded as 11.6 (±1.2) nmol/g FW. Besides, in data set [2], the “Activity (%) (s.d.), retention” value is given as 128 (±3) %. In addition, in data set [3], the “SENESCENT CELLS (%) HDF25” value is given as 3%, the “SENESCENT CELLS (%) HDF45” value is reported as 4% and the “SENESCENT CELLS (%) HDF80” value is given as 20%. Besides, the mutagenic response entry in data set [4] was “no positive mutagenic responses”.
For `Oc1ccc(Nc2ncnc3c2nc(Br)n3C2CCCCO2)cc1` (centres unmarked) [Compound 44], the “MDA (nmol/g FW)” value in data set [1] was 10.7 (±0.8) nmol/g FW.
Consider `C/C(=C/CNc1ncnc2c1nc(Br)n2C1CCCO1)CO` (centres unmarked) [Compound 74], for which, in data set [2], the “Activity (%) (s.d.), retention” value is 127 (±5) %. In data set [3], the “SENESCENT CELLS (%) HDF25” value is given as 3%, the “SENESCENT CELLS (%) HDF45” value came out at 5% and the “SENESCENT CELLS (%) HDF80” value was determined as 21%. Also, in data set [5], the “Activity (%); (s.d.)” value was 122 (±4) % and the “Concentration with highest activity (mol/l)” value was 10^−6-10^−4 mol/l. Further, in data set [4], the mutagenic response result is recorded as “no positive mutagenic responses”.
`Oc1cccc(CNc2ncnc3c2nc(I)n3C2CCCO2)c1` (centres unmarked) [Compound 76]: the “Activity (%) (s.d.), retention” value in data set [2] is listed as 112 (±3) %. For the same compound, in data set [3], the “SENESCENT CELLS (%) HDF25” value is listed as 3%, the “SENESCENT CELLS (%) HDF45” value is 4% and the “SENESCENT CELLS (%) HDF80” value was determined as 15%. Also, in data set [5], the “Activity (%); (s.d.)” value is 114 (±3) % and the “Concentration with highest activity (mol/l)” value was 10^−6-10^−4 mol/l. The mutagenic response result in data set [4] was “no positive mutagenic responses”.
With `C/C(=C/CNc1ncnc2c1nc(N(C)C)n2C1CCCO1)CO` (centres unmarked) [Compound 189], in data set [1], the “MDA (nmol/g FW)” value is given as 10.8 (±0.9) nmol/g FW.
On the same count and under the same terms, the value for `Nc1nc2c(NCc3ccco3)ncnc2n1C1CCCO1` (centres unmarked) [Compound 197] was 9.2 (±0.6) nmol/g FW; that for `Nc1nc2c(NCc3ccc(O)cc3)ncnc2n1C1CCCO1` (centres unmarked) [Compound 201] was 8.7 (±0.7) nmol/g FW.
With `Oc1nc2c(NCc3ccco3)ncnc2n1C1CCCO1` (centres unmarked) [Compound 221], in data set [1], the “MDA (nmol/g FW)” value is 10.2 (±0.5) nmol/g FW.
On the same count and under the same terms, the value for `Oc1ccc(CNc2ncnc3c2nc(O)n3C2CCCO2)cc1` (centres unmarked) [Compound 224] was 9.3 (±0.8) nmol/g FW; that for `NCCNc1nc2c(NCc3ccco3)ncnc2n1C1CCCO1` (centres unmarked) [Compound 233] was 9.8 (±0.7) nmol/g FW.
Same read-out and setting: the value for `NCCCNc1nc2c(NCc3ccco3)ncnc2n1C1CCCO1` (centres unmarked) [Compound 238] was 9.4 (±0.7) nmol/g FW.
For `NCCCOc1nc2c(NCc3ccco3)ncnc2n1C1CCCO1` (centres unmarked) [Compound 241], the “MDA (nmol/g FW)” value in data set [1] was 9.6 (±0.8) nmol/g FW.
Still for that read-out and setting: the value for `CC(C)=CCNc1ncnc2c1nc(NCCO)n2C1CCCO1` (centres unmarked) [Compound 245] was 9.5 (±0.6) nmol/g FW.

The record behind these values is US10093675B2, “6,8-disubstituted-9-(heterocyclyl)purines, compositions containing these derivatives and their use in cosmetic and medicinal applications” (USTAV EXPERIMENTALNI BOTANIKY AV CR, V.V.I., priority 2014, dated 2018).
